The source of these data is patent US20230330254A1 (Regeneron Pharmaceuticals, Inc., priority 2022, published 2023).

≈ marks a conversion by molar mass, not a printed value. Like-named read-outs stand apart in the source and are kept apart here. Where a SMILES comes first, the peptide text is derived from it. [ ]: non-standard residue; d: D form. The star is where a group is joined. Bip(2'-Et,4'-O(CH2)4NH2) = CCc1cc(OCCCCN)ccc1-c1ccc(C[C@H](N)C(=O)O)cc1; Malonyl(2,2-Me2,histaminyl) = CC(C)(C(=O)NCCc1cnc[nH]1)C(=O)*; Nva(5-(3,5-Me2Ph)) = Cc1cc(C)cc(CCC[C@H](N)C(=O)O)c1; Ala(1H-tetrazol-5-yl) = N[C@@H](Cc1nnn[nH]1)C(=O)O; αMePhe(2-F) = C[C@](N)(Cc1ccccc1F)C(=O)O Where only a bound is given, the exact number is not on record here.

One data set has as its target hERG potassium channels (Homo sapiens, UniProt Q12809). In words: cell-based. The procedure: For the assay, CHO cells stably expressing hERG potassium channels were plated and cultured for at least 2 days in a humidified and air-controlled (5% CO2) incubator at 37° C. prior to use in electrophysiological experiments. Cells were then harvested using TrypLE and resuspended in physiological solution (10 mM HEPES, 80 mM NaCl, 4 mM KCl, 2 mM CaCl2, 1 mM MgCl2, 5 mM Glucose, 60 mM NM DG, pH 7.4). Test compounds were dissolved in water to obtain stock solutions for different test concentrations. […] One 40 μL addition of the vehicle was applied, followed by a 300s baseline recording period. […] Recordings were required to pass quality control over the duration of the recording or the well was abandoned, and the compound was retested, all automatically set by PatchControl. […] A minimum of 2 replicates per concentration were obtained. […] Curve-fitting and IC50 value calculations were performed by GraphPad Prism 5.0.

Data set [1] in a line: Liver microsome stability. The class given is in vitro ADME, human. As for the experimental part:
To assess the in vitro ADME properties of the LP, microsomal stability assay was performed to determine intrinsic clearance, and plasma protein binding assay was performed to understand the distribution potential.
In general terms: Liver microsomes are vesicles of endoplasmic reticulum, rich in cytochrome P450 enzymes.

The target of data set [2] is T1, human glucagon receptor (GCGR) (Homo sapiens, UniProt P47871).
T1 construct: full-length human GLP1R, cynomolgus GLP1R, human glucagon receptor (GCGR); expressed in transfected cells; host or cells: HEK293/CRE-Luc
T1 sequence (P47871 26-477): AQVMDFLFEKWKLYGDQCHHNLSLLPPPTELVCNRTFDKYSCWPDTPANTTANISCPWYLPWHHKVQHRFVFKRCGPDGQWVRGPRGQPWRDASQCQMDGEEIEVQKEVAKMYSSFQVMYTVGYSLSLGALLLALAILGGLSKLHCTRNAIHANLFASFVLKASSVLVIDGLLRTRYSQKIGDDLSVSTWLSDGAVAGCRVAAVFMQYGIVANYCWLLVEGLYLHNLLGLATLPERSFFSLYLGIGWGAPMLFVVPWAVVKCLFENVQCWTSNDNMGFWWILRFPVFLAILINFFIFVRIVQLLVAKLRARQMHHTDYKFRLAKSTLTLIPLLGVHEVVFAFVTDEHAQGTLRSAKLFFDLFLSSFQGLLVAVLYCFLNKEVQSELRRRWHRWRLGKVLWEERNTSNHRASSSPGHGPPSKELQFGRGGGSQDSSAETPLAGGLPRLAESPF
In words: CRE-luciferase reporter assay, HEK293/Myc-hGCGR/Cre-Luc (Example 9). The class given is cell-based. The note with it: Table 5C. As for the experimental part: (§1) To test the activity of GLP1R agonist payloads and GLP1R agonist linker-payloads (LPs) in vitro, a cell-based cAMP responsive luciferase reporter assay was developed.
(§2) Cells were incubated overnight at 37° C. in 5% CO2. […] Plates were incubated for 5.5 h at 37° C. in 5% CO2. For end-point measurement, 100 μL/well of One-Glo reagent (Promega, #E6051) was added and plates were kept at room temperature for 5-10 minutes. Luciferase activity was measured on Envision Multilabel Plate Reader (Perkin Elmer) in Luminescent mode. The relative light units (RLU) values were obtained and the results were analyzed using nonlinear regression with GraphPad Prism software (GraphPad).
(In general: In a reporter assay the amount or activity of a reporter protein is the signal.)

A short description of data set [3]: Plasma protein binding (equilibrium dialysis). The class given is in vitro ADME, human. As for the experimental part: The pH value of the resulting plasma was checked
(<http://www.htdialysis.com/>).
DMSO working solutions were prepared at 400 μM. […] These samples were transferred into new 96-well plates.
(In general: Equilibrium dialysis compares concentrations on both sides of a semipermeable membrane.)

Data set [4] deals with Salmonella typhimurium TA98 and TA100. In words: Mini-Ames assay. Type of data set: cell-based. The procedure:
The objective of this Mini-Ames study was to evaluate the test article LP11, for its ability to induce reverse mutations in the genome of strains of Salmonella typhimurium TA98 and TA100 in the presence and absence of metabolic activation (S9 mixture).
The Mini-Ames assay was conducted for the test article in the presence and absence of the S9 mixture, concurrently with the negative/solvent control (DMSO) using six wells and positive controls (2 μg/well TA98 alone, 0.2 μg/well TA100 alone or 0.4 μg/well TA98+TA100 in the presence of S9) using three wells. The tested dose levels for the test article, in the presence and absence of S9 mix, were 1000, 400, 160, 64, 25, 10, 4, and 1.5 μg per well, with each dose tested in triplicate. The study was conducted using fresh cultures of the bacterial strains and fresh test article formulations.

The nature of data set [5]: Plasma stability of payloads and linker-payloads, mouse plasma. The class given is in vitro ADME. The note with it: mouse, pooled plasma. The procedure: The plasma stability of payloads and linker payloads of the disclosure were measured. For the assay, pooled frozen plasma (human, mouse or monkey) was thawed in cold water or a 37° C. water bath prior to experiment. Plasma was centrifuged at 4000 rpm for 5 min if any clots were observed, they were subsequently removed. If required, the pH was adjusted to 7.4±0.1. For the preparation of compounds and positive controls, a 1 mM intermediate solution was prepared by diluting 10 μL of their stock solution with 90 μL DMSO; a 1 mM intermediate solution of the positive control (Propantheline) was prepared by diluting 10 μL of its stock solution with 90 μL ultrapure water. Subsequently, 100 μM dosing solution for each compound was prepared by diluting 20 μL of the intermediate solution (1 mM) with 180 μL 45% MeOH/H2O. 98 μL of plasma was spiked with 2 μL of dosing solution (100 μM) to achieve the final concentration of 2 μM in duplicate. Samples were then incubated at 37° C. in a water bath. […] At each time point, 400 μL of stop solution (200 ng/mL tolbutamide plus 200 ng/mL labetalol in 50% ACN/MeOH) was added to precipitate protein and mixed thoroughly. Sample plates were then centrifuged at 4,000 rpm for 10 min. An aliquot of supernatant (50 μL) was transferred from each well and mixed with 100 μL ultrapure water. The samples were then shaken at 800 rpm for approximately 10 min before submitting for LC-MS/MS analysis.

The nature of a further data set: Water solubility. The note with it: Table 5C. Type of data set: physicochemical.
Data set [6] addresses T2, human gastric inhibitory polypeptide receptor (GIPR) (Homo sapiens, UniProt P48546).
T2 sequence (P48546 22-466): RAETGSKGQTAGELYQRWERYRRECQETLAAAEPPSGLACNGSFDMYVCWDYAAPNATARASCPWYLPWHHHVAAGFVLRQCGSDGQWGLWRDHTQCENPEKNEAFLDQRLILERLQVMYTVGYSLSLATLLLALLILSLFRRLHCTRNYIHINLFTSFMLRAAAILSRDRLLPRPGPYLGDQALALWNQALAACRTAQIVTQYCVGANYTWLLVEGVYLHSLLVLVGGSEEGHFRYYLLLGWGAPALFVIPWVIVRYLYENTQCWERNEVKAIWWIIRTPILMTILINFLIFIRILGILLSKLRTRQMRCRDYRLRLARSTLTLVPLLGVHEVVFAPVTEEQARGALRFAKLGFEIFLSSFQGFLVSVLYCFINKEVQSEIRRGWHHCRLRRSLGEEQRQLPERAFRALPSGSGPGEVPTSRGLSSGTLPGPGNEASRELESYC
As to the kind of experiment: CRE-luciferase reporter assay, HEK293/Myc-hGIPR/Cre-Luc (Example 9). Type of data set: cell-based. On the set-up: Myc; expressed in transfected cells. The note with it: Table 5C. As for the experimental part:
as §1, §2

Data set [7] in a line: Plasma stability of payloads (t½).

Sequence of hERG potassium channels (Q12809 whole entry): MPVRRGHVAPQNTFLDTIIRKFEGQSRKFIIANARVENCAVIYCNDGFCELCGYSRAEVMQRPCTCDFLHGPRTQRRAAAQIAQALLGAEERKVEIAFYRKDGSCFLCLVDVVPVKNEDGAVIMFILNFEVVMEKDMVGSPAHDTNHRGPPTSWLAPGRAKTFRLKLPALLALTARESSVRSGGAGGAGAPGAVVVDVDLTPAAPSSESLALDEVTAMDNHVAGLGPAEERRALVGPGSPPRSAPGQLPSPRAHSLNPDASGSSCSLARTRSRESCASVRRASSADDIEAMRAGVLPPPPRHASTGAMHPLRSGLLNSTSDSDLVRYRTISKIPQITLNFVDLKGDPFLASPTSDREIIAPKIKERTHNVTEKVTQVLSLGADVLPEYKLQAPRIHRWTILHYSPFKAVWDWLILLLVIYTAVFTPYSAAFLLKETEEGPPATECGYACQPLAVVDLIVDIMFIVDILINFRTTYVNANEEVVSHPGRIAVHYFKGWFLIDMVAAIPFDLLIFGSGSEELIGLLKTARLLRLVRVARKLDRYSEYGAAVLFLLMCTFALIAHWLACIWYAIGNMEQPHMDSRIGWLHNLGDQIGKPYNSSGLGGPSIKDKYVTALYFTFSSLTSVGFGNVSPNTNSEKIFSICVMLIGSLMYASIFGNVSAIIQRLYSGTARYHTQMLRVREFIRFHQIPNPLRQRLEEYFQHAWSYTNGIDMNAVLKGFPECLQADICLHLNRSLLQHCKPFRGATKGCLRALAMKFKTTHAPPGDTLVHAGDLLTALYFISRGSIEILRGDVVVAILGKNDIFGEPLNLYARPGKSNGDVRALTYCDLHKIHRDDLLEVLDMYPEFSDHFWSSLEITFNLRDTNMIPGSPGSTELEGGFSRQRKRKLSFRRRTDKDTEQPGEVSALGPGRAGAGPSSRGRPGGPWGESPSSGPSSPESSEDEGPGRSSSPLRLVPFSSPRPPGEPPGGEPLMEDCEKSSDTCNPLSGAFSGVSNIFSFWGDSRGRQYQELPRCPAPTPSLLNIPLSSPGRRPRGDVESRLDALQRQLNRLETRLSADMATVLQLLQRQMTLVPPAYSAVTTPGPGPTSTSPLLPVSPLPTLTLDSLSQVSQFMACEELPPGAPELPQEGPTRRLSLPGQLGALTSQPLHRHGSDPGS

As for `CCc1cc(OCCCCn2cc(COCCOCCOCCOCCOCCOCCOCCOCCN)nn2)ccc1-c1ccc(C[C@H](NC(=O)[C@H](CC(=O)O)NC(=O)[C@H](CO)NC(=O)[C@@H](NC(=O)C(C)(Cc2ccccc2F)NC(=O)[C@@H](NC(=O)CNC(=O)[C@H](Cc2nn[nH]n2)NC(=O)C(C)(C)C(=O)NCCc2cnc[nH]2)[C@@H](C)O)[C@@H](C)O)C(=O)N[C@@H](CCCc2cc(C)cc(C)c2)C(N)=O)cc1` (stereo partly shown) [LP11, NH2-PEG8-triazole-P8], the half-maximal inhibitory concentration (IC50) – broadly, the point on the concentration scale where inhibition reaches its midpoint – on hERG potassium channels is more than 100 µM; against hERG potassium channels (human, pH 7.4), more than 100 µM. Further, the “CLint(mic)” value in data set [1] (Table 7) was less than 9.6 µL/min/mg. For the same compound, the CLint scaled in data set [1] (human, liver microsomes, Table 5C, read-out: Human Liver microsome CLint(liver)) is less than 8.6 mL/min/kg. Further, the microsomal CLint in data set [1] (human, liver microsomes, Table 5C, read-out: Human Liver microsome CLint(mic)) was less than 9.6 µL/min/mg. Further, the half-life in data set [1] (human, liver microsomes, Table 5C, read-out: Human Liver microsome T1/2) is more than 2.42 h. Besides, the “GCGR EC50 (nM)” value in data set [2] was “Completely inactive”. Also, in data set [3] (Human Plasma, 4 hours dialysis), the “% Bound” value was 97.97%. Moreover, the “% Unbound” value in data set [3] (Human Plasma, 4 hours dialysis) is 2.03%. This compound came in with a recovery at 4 h, 2 µM in data set [3] (Human Plasma, 4 hours dialysis) of 89.2%. Also, the fraction unbound (commonly the share of the substance not bound to proteins or other matrix) at 4 h, 2 µM in [3] (human, plasma, Table 5C) is 0.0203. For the same compound, the “fold increase in mean number of revertant colonies vs negative/solvent control” value in data set [4] is listed as not above 2.0 fold. Besides, the “mutagenicity (Mini-Ames conclusion)” value in [4] (TA98 and TA100, with and without S9) is on record as “negative for mutagenicity”. Moreover, the “Ames (TA98 and TA100) in the presence and absence of S9” value in data set [4] (Table 5C) is recorded as “Negative for mutagenicity”. In addition, the “cytotoxicity in Mini-Ames” value in [4] (any dose level (1.5-1000 μg per well), with or without S9 mix) is listed as “no obvious cytotoxicity”. In addition, the “precipitates in Mini-Ames (naked eye after incubation)” value in data set [4] (any dose level, with or without S9 mix) is “No obvious precipitates”. In addition, the half-life at 2 µM is more than 144 h in [5] (pH 7.4, Mouse, assay time 3 days, Table 5B, read-out: plasma stability T½); more than 173 h in [5] (pH 7.4, Table 5A, mouse plasma, tested time C (3 days), read-out: plasma stability T½ (hr), mouse); more than 168 h in [5] (pH 7.4, Table 5C, read-out: Plasma Stability Mouse T½). In addition, the solubility (as a rule, the concentration that dissolves in the medium under given conditions) in the data set “Water solubility” amounted to 60 mM (≈ 119 mg/mL). In data set [6], the “GIPR EC50 (nM)” value was “Completely inactive”.

In the case of `CCc1cc(OCCCCN)ccc1-c1ccc(C[C@H](NC(=O)[C@H](CC(=O)O)NC(=O)[C@H](CO)NC(=O)[C@@H](NC(=O)[C@](C)(Cc2ccccc2F)NC(=O)[C@@H](NC(=O)CNC(=O)[C@H](Cc2nn[nH]n2)NC(=O)C(C)(C)C(=O)NCCc2cnc[nH]2)[C@@H](C)O)[C@@H](C)O)C(=O)N[C@@H](CCCc2cc(C)cc(C)c2)C(N)=O)cc1` [P9, (8S,14S,17S,20S,23S,26S)-8-((2H-tetrazol-5-yl)methyl)-26-(((S)-1-(((S)-1-amino-5-(3,5-dimethylphenyl)-1-oxopentan-2-yl)amino)-3-(4′-(4-aminobutoxy)-2′-ethyl-[1,1′-biphenyl]-4-yl)-1-oxopropan-2-yl)carbamoyl)-17-(2-fluorobenzyl)-14,20-bis((R)-1-hydroxyethyl)-23-(hydroxymethyl)-1-(1H-imidazol-5-yl)-5,5,17-trimethyl-4,6,9,12,15,18,21,24-octaoxo-3,7,10,13,16,19,22,25-octaazaoctacosan-28-oic acid] ({Malonyl(2,2-Me2,histaminyl)}-[Ala(1H-tetrazol-5-yl)]GT[αMePhe(2-F)]TSD[Bip(2'-Et,4'-O(CH2)4NH2)][Nva(5-(3,5-Me2Ph))]-NH2), the “Plasma stability t½” value in data set [7] was more than 57.8 h.
